The text below walks through data of patent publication US10172843B2, “Piperidine derivatives” (Hoffmann-La Roche Inc., priority 2014, dated 2019).

In general, IC50 refers to the midpoint of a concentration-inhibition curve.

The target in the first assay is human Cat S (Homo sapiens (Human), UniProt P25774). Kind of assay: Cathepsin enzyme inhibition assay (fluorogenic peptide substrate). The assay is classed as biochemical. Conditions: human Cat S, enzyme 1 nM, substrate Z-Val-Val-Arg-AMC, pH 6.5; read-out: CatS IC50. Here is the method: Cathepsin Enzyme Inhibition Assay
human Cat S, sequence (P25774 115-331): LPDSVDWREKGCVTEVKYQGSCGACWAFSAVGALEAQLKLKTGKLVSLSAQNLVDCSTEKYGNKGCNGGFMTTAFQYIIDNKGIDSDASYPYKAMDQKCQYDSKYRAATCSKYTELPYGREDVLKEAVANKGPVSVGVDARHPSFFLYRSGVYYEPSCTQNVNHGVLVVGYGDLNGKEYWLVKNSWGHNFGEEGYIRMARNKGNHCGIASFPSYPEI
Enzyme activity is measured by observing the increase in fluorescence intensity caused by cleavage of a peptide substrate containing a fluorophore whose emission is quenched in the intact peptide.
Assay buffer: 100 mM potassium phosphate pH 6.5, EDTA-Na 5 mM, Triton X-100 0.001%, DTT 5 mM.
Enzymes (all at 1 nM): human and mouse Cathepsin S, Cat K, Cat B, Cat L.
Substrate ([…], except for Cat K which uses Z-Leu-Arg-AMC (both from Bachem).
Excitation 360 nm, Emission 465 nm.
Enzyme is added to the substance dilutions in 96-well microtitre plates and the reaction is started with substrate. […] IC50 are calculated by standard methods.
Inhibition of human Cat S, mouse Cat S, human Cat K, mouse Cat K, human Cat B, mouse Cat B, human Cat L and mouse Cat L have been measured separately.
Consider `Cc1[nH]c(-c2ccc(C(F)(F)F)cc2)nc1CN1CCC(c2c[nH]c3ccncc23)CC1` [Example 63, 3-{1-[5-Methyl-2-(4-trifluoromethyl-phenyl)-1H-imidazol-4-ylmethyl]-piperidin-4-yl}-1H-pyrrolo[3,2-c]pyridine], for which the IC50 turned out to be 667 nM.

With `Cc1[nH]c(-c2ccc(C(F)(F)F)cc2)nc1CN1CCC(n2c(=O)n(CCS(C)(=O)=O)c3cc(Cl)ccc32)CC1` [Example 35, 5-Chloro-3-(2-methanesulfonyl-ethyl)-1-{1-[5-methyl-2-(4-trifluoromethyl-phenyl)-1H-imidazol-4-ylmethyl]-piperidin-4-yl}-1,3-dihydro-benzoimidazol-2-one], the IC50 turned out to be 257 nM.

With `Cc1[nH]c(-c2ccc(C(F)(F)F)cc2)nc1CN1CCC(n2c(=O)[nH]c3ccc(N4CCOCC4)cc32)CC1` [Example 10, 1-{1-[5-Methyl-2-(4-trifluoromethyl-phenyl)-1H-imidazol-4-ylmethyl]-piperidin-4-yl}-6-morpholin-4-yl-1,3-dihydro-benzoimidazol-2-one], the IC50 stood at 280 nM.

With `Cc1[nH]c(-c2ccc(Cl)c(Cl)c2)nc1CN1CCC(c2c[nH]c3ncccc23)CC1` [Example 49, 3-{1-[2-(3,4-Dichloro-phenyl)-5-methyl-1H-imidazol-4-ylmethyl]-piperidin-4-yl}-1H-pyrrolo[2,3-b]pyridine], the 50% inhibitory concentration (IC50) turned out to be 1200 nM.

With `COCCn1c(=O)n(C2CCN(Cc3nc(-c4ccc(C(F)(F)F)cc4)[nH]c3C)CC2)c2ccc(Cl)cc21` [Example 27, 5-Chloro-3-(2-methoxy-ethyl)-1-{1-[5-methyl-2-(4-trifluoromethyl-phenyl)-1H-imidazol-4-ylmethyl]-piperidin-4-yl}-1,3-dihydro-benzoimidazol-2-one], the IC50 was 220 nM.

Consider `Cc1[nH]c(-c2ccc(Cl)c(Cl)c2)nc1CN1CCC(N2Cc3ccccc3NC2=O)CC1` [Example 42, 3-{1-[2-(3,4-Dichloro-phenyl)-5-methyl-1H-imidazol-4-ylmethyl]-piperidin-4-yl}-3,4-dihydro-1H-quinazolin-2-one], for which the IC50 was 287 nM.

For `Cc1[nH]c(-c2ccc(C(F)(F)F)cc2)nc1CN1CCC(n2c(=O)n(CCO)c3cc(Cl)ccc32)CC1` [Example 30, 5-Chloro-3-(2-hydroxy-ethyl)-1-{1-[5-methyl-2-(4-trifluoromethyl-phenyl)-1H-imidazol-4-ylmethyl]-piperidin-4-yl}-1,3-dihydro-benzoimidazol-2-one], the IC50 came out at 230 nM.

Turning to `Cc1[nH]c(-c2ccc(S(=O)(=O)Cc3ccccc3)cc2)nc1CN1CCC(n2c(=O)n(C)c3ccccc32)CC1` [Example 81, 1-Methyl-3-{1-[5-methyl-2-(4-phenylmethanesulfonyl-phenyl)-1H-imidazol-4-ylmethyl]-piperidin-4-yl}-1,3-dihydro-benzoimidazol-2-one], the IC50 came out at 170 nM.

As to `Cc1nn(-c2ccc(C(F)(F)F)cc2)cc1CN1CCC(N2Cc3ccccc3NC2=O)CC1` [Example 52, 3-{1-[3-Methyl-1-(4-trifluoromethyl-phenyl)-1H-pyrazol-4-ylmethyl]-piperidin-4-yl}-3,4-dihydro-1H-quinazolin-2-one], the IC50 is 1380 nM.

As to `Cc1[nH]c(-c2ccc(C(F)(F)F)c(Cl)c2)nc1CN1CCC(N2Cc3ccc(F)cc3NC2=O)CC1` [Example 45, 3-{1-[2-(3-Chloro-4-trifluoromethyl-phenyl)-5-methyl-1H-imidazol-4-ylmethyl]-piperidin-4-yl}-7-fluoro-3,4-dihydro-1H-quinazolin-2-one], the IC50 turned out to be 110 nM.

In the case of `Cc1c(CN2CCC(n3c(=O)n(C)c4ccccc43)CC2)nc(-c2ccc(C(F)(F)F)cc2)n1C` [Example 70, 1-{1-[1,5-Dimethyl-2-(4-trifluoromethyl-phenyl)-1H-imidazol-4-ylmethyl]-piperidin-4-yl}-3-methyl-1,3-dihydro-benzoimidazol-2-one], the half-inhibitory concentration (IC50) was determined as 245 nM.

For `Cc1[nH]c(-c2ccc(C(F)(F)F)c(F)c2)nc1CN1CCC(n2c(=O)n(C)c3ccccc32)CC1` [Example 44, 1-{1-[2-(3-Fluoro-4-trifluoromethyl-phenyl)-5-methyl-1H-imidazol-4-ylmethyl]-piperidin-4-yl}-3-methyl-1,3-dihydro-benzoimidazol-2-one], the IC50 is 385 nM.

Turning to `COCCc1[nH]c(-c2ccc(C(F)(F)F)cc2)nc1CN1CCC(c2c[nH]c3ccncc23)CC1` [Example 61, 3-{1-[5-(2-Methoxy-ethyl)-2-(4-trifluoromethyl-phenyl)-1H-imidazol-4-ylmethyl]-piperidin-4-yl}-1H-pyrrolo[3,2-c]pyridine], the IC50 was 1940 nM.

Take `Cc1[nH]c(-c2ccc(C(F)(F)F)cc2)nc1CN1CCC(n2c(=O)n(CC(=O)O)c3cc(Cl)ccc32)CC1` [Example 34, (6-Chloro-3-{1-[5-methyl-2-(4-trifluoromethyl-phenyl)-1H-imidazol-4-ylmethyl]-piperidin-4-yl}-2-oxo-2,3-dihydro-benzoimidazol-1-yl)-acetic acid]: the IC50 came out at 930 nM.

As for `Cc1nc(-c2ccc(C(F)(F)F)cc2)[nH]c1CN1CCC(N2CCCCC2=O)CC1` [Example 8, 1-[1-[[4-Methyl-2-[4-(trifluoromethyl)phenyl]-1H-imidazol-5-yl]methyl]-4-piperidyl]piperidin-2-one], the IC50 is 3280 nM.

As to `Cc1[nH]c(-c2ccc(C(F)(F)F)cc2)nc1CN1CCC(n2c(=O)n(CC(N)=O)c3cc(Cl)ccc32)CC1` [Example 31, 2-(6-Chloro-3-{1-[5-methyl-2-(4-trifluoromethyl-phenyl)-1H-imidazol-4-ylmethyl]-piperidin-4-yl}-2-oxo-2,3-dihydro-benzoimidazol-1-yl)-acetamide], the IC50 turned out to be 310 nM.

For the compound `O=c1[nH]ccc2c1ncn2C1CCN(Cc2cnc(-c3ccc(C(F)(F)F)cc3)[nH]2)CC1` [Example 14, 1-[1-[[2-[4-(Trifluoromethyl)phenyl]-1H-imidazol-5-yl]methyl]-4-piperidyl]-5H-imidazo[4,5-c]pyridin-4-one], the IC50 stood at 4320 nM.

`COCCn1c(-c2ccc(C(F)(F)F)cc2)nc(CN2CCC(N3Cc4ccccc4NC3=O)CC2)c1C` [Example 76, 3-{1-[1-(2-Methoxy-ethyl)-5-methyl-2-(4-trifluoromethyl-phenyl)-1H-imidazol-4-ylmethyl]-piperidin-4-yl}-3,4-dihydro-1H-quinazolin-2-one]: the IC50 came out at 317 nM.

Take `COCCN1C(=O)N(C2CCN(Cc3nc(-c4ccc(C(F)(F)F)cc4)[nH]c3C)CC2)Cc2ccccc21` [Example 54, 1-(2-Methoxy-ethyl)-3-{1-[5-methyl-2-(4-trifluoromethyl-phenyl)-1H-imidazol-4-ylmethyl]-piperidin-4-yl}-3,4-dihydro-1H-quinazolin-2-one]: the IC50 stood at 135 nM.

For the compound `Cn1nc(CN2CCC(N3Cc4ccccc4NC3=O)CC2)nc1-c1ccc(C(F)(F)F)cc1` [Example 66, 3-{1-[1-Methyl-5-(4-trifluoromethyl-phenyl)-1H-[1,2,4]triazol-3-ylmethyl]-piperidin-4-yl}-3,4-dihydro-1H-quinazolin-2-one], the IC50 was 450 nM.

For `COCCc1[nH]c(-c2ccc(C(F)(F)F)cc2)nc1CN1CCC(N2Cc3ccccc3NC2=O)CC1` [Example 55, 3-{1-[5-(2-Methoxy-ethyl)-2-(4-trifluoromethyl-phenyl)-1H-imidazol-4-ylmethyl]-piperidin-4-yl}-3,4-dihydro-1H-quinazolin-2-one], the IC50 was determined as 350 nM.

For `Cc1[nH]c(-c2ccc(S(=O)(=O)C(F)(F)F)cc2)nc1CN1CCC(N2Cc3ccccc3NC2=O)CC1` [Example 72, 3-{1-[5-Methyl-2-(4-trifluoromethanesulfonyl-phenyl)-1H-imidazol-4-ylmethyl]-piperidin-4-yl}-3,4-dihydro-1H-quinazolin-2-one], the IC50 was 24 nM.

`Cc1[nH]c(-c2ccc(S(=O)(=O)Cc3ccccc3)cc2)nc1CN1CCC(N2Cc3ccccc3NC2=O)CC1` [Example 80, 3-{1-[5-Methyl-2-(4-phenylmethanesulfonyl-phenyl)-1H-imidazol-4-ylmethyl]-piperidin-4-yl}-3,4-dihydro-1H-quinazolin-2-one]: the 50% inhibitory concentration (IC50) was 99 nM.

Take `CCn1c(=O)n(C2CCN(Cc3nc(-c4ccc(C(F)(F)F)cc4)[nH]c3C)CC2)c2ccc(Cl)cc21` [Example 26, 5-Chloro-3-ethyl-1-{1-[5-methyl-2-(4-trifluoromethyl-phenyl)-1H-imidazol-4-ylmethyl]-piperidin-4-yl}-1,3-dihydro-benzoimidazol-2-one]: the IC50 was 150 nM.

For `Cc1[nH]c(-c2ccc(C(F)(F)F)cc2)nc1CN1CCC(N2Cc3ccc(F)cc3NC2=O)CC1` [Example 25, 7-Fluoro-3-{1-[5-methyl-2-(4-trifluoromethyl-phenyl)-1H-imidazol-4-ylmethyl]-piperidin-4-yl}-3,4-dihydro-1H-quinazolin-2-one], the IC50 was found to be 180 nM.

Staying with this assay, now noted: read-out: CatS IC50.
Regarding `Cc1[nH]c(-c2ccc(C(F)(F)F)cc2)nc1CN1CCC(N2C(=O)COc3ccccc32)CC1` [Example 19, 4-{1-[5-Methyl-2-(4-trifluoromethyl-phenyl)-1H-imidazol-4-ylmethyl]-piperidin-4-yl}-4H-benzo[1,4]oxazin-3-one], the IC50 turned out to be 470 nM.

For the compound `Cc1[nH]c(-c2ccc(C(F)(F)F)cc2)nc1CN1CCC(N2C(=O)Cc3ccccc32)CC1` [Example 2, 1-{1-[5-Methyl-2-(4-trifluoromethyl-phenyl)-1H-imidazol-4-ylmethyl]-piperidin-4-yl}-1,3-dihydro-indol-2-one], the IC50 was determined as 780 nM.
